Common to all, as to type: physicochemical
Series [1] can be described thus: Antioxidant activity assessed as inhibition of lipid peroxidation after 1 hr by TBARS assay.
Series [2] is described as follows: Antioxidant activity assessed as inhibition of lipid peroxidation at 100 uM after 1 hr by TBARS assay.
Series [3] in a line: Antioxidant activity assessed as DPPH free radical scavenging activity after 60 mins by spectrophotometry.
Series [4] can be described thus: Antioxidant activity assessed as DPPH free radical scavenging activity at 100 uM after 60 mins by spectrophotometry. As to conditions: 1 h.

Take `COc1ccc(NC(=S)NNC(=O)CSCc2cc(C(C)(C)C)c(O)c(C(C)(C)C)c2)cc1`: the IC50 in series [1] was determined as 30.1 µM; in series [3], 50.9 µM. Further, the Imax in series [2] amounted to 96.58%; in series [4], 76.76%.
On to `O=C1O[C@H]([C@@H](O)CO)C(O)=C1O` [ASCORBIC ACID], for which the 50% inhibitory concentration (IC50) in series [3] stood at 67.8 µM. Besides, the Imax in series [4] is given as 71.39%.
For `COc1ccccc1Nc1nnc(CSCc2cc(C(C)(C)C)c(O)c(C(C)(C)C)c2)s1`, the IC50 in series [1] came to 13.2 µM; in series [3], 90.8 µM. Besides, the Imax in series [2] was found to be 89.18%; in series [4], 54.69%.
Consider `Cc1c(C)c2c(c(C)c1O)CC[C@@](C)(CCC[C@H](C)CCC[C@H](C)CCCC(C)C)O2` [ALPHA-TOCOPHEROL], for which the IC50 in series [1] turned out to be 5.63 µM. Also, the Imax in series [2] is 84.69%.
`COc1ccccc1-n1c(S)nnc1CSCc1cc(C(C)(C)C)c(O)c(C(C)(C)C)c1`: the IC50 in series [1] is 38.9 µM; in series [3] it was over 100 µM. Moreover, the results for the Imax in series [2] and in series [4] were 76.47% and 27.83%, respectively.
Take `COc1ccc(-n2c(S)nnc2CSCc2cc(C(C)(C)C)c(O)c(C(C)(C)C)c2)cc1`: the IC50 is 2.85 µM in series [1] and 92.7 µM in series [3]. The Imax in series [2] turned out to be 86.43%; in series [4], 52.94%.
For `COc1ccccc1NC(=S)NNC(=O)CSCc1cc(C(C)(C)C)c(O)c(C(C)(C)C)c1`, in that order: 60.5 µM, 52 µM, 94.75% and 75.42%.
As for `COc1ccc(Nc2nnc(CSCc3cc(C(C)(C)C)c(O)c(C(C)(C)C)c3)s2)cc1`, the figures for the IC50 in series [1] and in series [3] were 7.98 µM and 76.8 µM, respectively. Further, the Imax in series [2] is on record as 89.84%; in series [4], 59.29%.
Regarding `CC(C)(C)c1cc(CSCC(=O)O)cc(C(C)(C)C)c1O`, the results for the IC50 in series [1] and in series [3] were 38.8 µM and 96.7 µM, respectively. Moreover, the Imax in series [2] was found to be 73.99%; in series [4], 51.2%.
For `Cc1cc(C(C)(C)C)c(O)c(C(C)(C)C)c1` [BUTYLATED HYDROXYTOLUENE], in that order: 36.7 µM, over 100 µM, 79.45% and 25.23%.

For the origin of these results see ChEMBL document CHEMBL3351533, “PASS-assisted design, synthesis and antioxidant evaluation of new butylated hydroxytoluene derivatives” (Eur J Med Chem, 2014).
